Results reported in PubChem BioAssay (NCI).
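In this assay, cells in 96-well plates receive the compound at five concentrations for 48 hours. Endpoints are linearly interpolated between the surrounding concentrations. At the GI50, growth is halved. TGI denotes the concentration required for complete inhibition of growth.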

Tests used:
Assay in all cases: NCI tumour cell line growth inhibition, 48 h
MDA-N = system: MDA-N
P388 leukemia = system: P388 leukemia
P388/ADR leukemia = system: P388/ADR leukemia
SN12K1 renal = system: SN12K1 renal

SMILES	TGI (MDA-N) [µM]	also measured
O=C(O)C(=Cc1ccnc2ccccc12)C(=O)O	> 100	
Cc1c(N=Nc2ccc([N+](=O)[O-])cc2)nc2scc(-c3ccccc3)n12	> 100	
COc1c(O)c2c(c3cc(C(=O)N4CCc5c4c(O)c(OC)c4[nH]c(C(=O)N6CC7CC78C6=CC(=O)c6[nH]cc(C)c68)cc54)[nH]c13)CCN2C(N)=O (centres undefined)	22.3	
CC(=O)O[C@H]1C(=O)[C@@]2(C)C(C(OC(=O)c3ccccc3)[C@]3(O)CC(OC(=O)[C@H](OC(=O)CCC(=O)O)C(NC(=O)c4ccccc4)c4ccccc4)C(C)=C1C3(C)C)C1(OC(C)=O)COC1C[C@@H]2OC(=O)CCC(=O)O (some centres undefined)	1.21	GI50 (MDA-N): 0.253 µM
O=c1c2ccccc2c2ccccc2c(=O)n1-c1cc2c3ccccc3ccc2c2ccccc12	> 100	
O=C(/C=C/c1ccc(OCC(=O)N2CCN(c3ccccc3)CC2)cc1)c1ccc(Cl)cc1	> 100	
CCCC[C@H]1C(=O)O[C@H](C)[C@H](NC(=O)c2cccc(NC=O)c2O)C(=O)O[C@@H](C)[C@@H]1OC(=O)CC(C)C	51.9	
C=C1[C@@H](C)[C@H]2[C@H](Cc3ccccc3)NC(=O)[C@]23OC(=O)/C=C/[C@H](O)CCC[C@@H](C)C/C=C/[C@H]3[C@@H]1O	> 100	TGI (P388 leukemia): > 87.1 µM; TGI (P388/ADR leukemia): 73.4 µM; TGI (SN12K1 renal): 41.1 µM
O=c1cc(C(F)(F)F)c2cc3c(cc2o1)NCCC3	> 100	
O=C(O)c1cc2ccccc2c(O)c1O	4.01	
CC(=O)Nc1ccc(/C=C/[N+](=O)[O-])cc1	6.59	
N#CC(=S)Nc1cccc(Cl)c1	> 100	
COc1cc(Nc2nc3cc(N)cc(N)c3nc2-c2ccccc2)cc(OC)c1	35.9	GI50 (MDA-N): 13 µM
C/C(=N/S(=O)(=O)c1ccc(Cl)c(Cl)c1)OCC(C)(C)C	> 100	
